These molecules were tested on HCV (Ib) RNA replication (assay: Cell-based luciferase reporter HCV (1b) RNA replication assay (replicon cell lines Huh-7 5.2 and ET)). Conditions: HCV 1b genotype replicon, luciferase readout, 4 days incubation; read-out: EC50_1b.
Set-up: species or system Hepatitis C virus
Procedure, shortened: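 Huh-7-derived 5.2 or ET replicon cells carrying a firefly luciferase reporter were seeded at ~3000 cells/well in medium without G418 or phenol red. Compound was added after 3-4 h, followed by 4 days at 37 °C. Luciferase readout was used, with IC50 fitted by nonlinear regression from eleven concentrations in duplicate.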

Row | SMILES | EC50
1 | COC(=O)N[C@H](C(=O)N1CC2CC2C1c1nc2cc(-c3ccc(-c4ccc5[nH]c(C6C7CC7CN6C(=O)[C@@H](NC(=O)OC)C(C)C)nc5c4)cc3)ccc2[nH]1)C(C)C (stereo partly drawn) [Compound 244] | ≤ 5 nM

Same assay, conditions: Hepatitis C virus, Huh-7, 96 h, HCV 1b genotype replicon, luciferase readout, 4 days incubation; read-out: EC50_1b

Row | SMILES | EC50
2 | CC[C@@H](C(=O)N1CCC[C@H]1c1nc2cc(-c3ccc(-c4ccc5nc([C@@H]6CCCN6C(=O)[C@H](CC)N(C)C(=O)OC)[nH]c5c4)c4c3OCO4)ccc2[nH]1)N(C)C(=O)OC [Compound 215] | ≤ 5 nM
3 | COC(=O)N[C@H](C(=O)N1CCC[C@H]1c1nc2cc(-c3ccc(-c4ccc5nc([C@@H]6CCCN6C(=O)CCCC[C@@H]6SC[C@@H]7NC(=O)N[C@@H]76)[nH]c5c4)cc3)ccc2[nH]1)C(C)C [Compound 216] | ≤ 5 nM
4 | COC(=O)N[C@H](C(=O)N1CCCC1c1nc2cc(-c3ccc(-c4ccc(-c5ccc6[nH]c(C7CCCN7C(=O)[C@@H](NC(=O)OC)C(C)C)nc6c5)s4)s3)ccc2[nH]1)C(C)C (stereo partly drawn) [Compound 217] | ≤ 5 nM
5 | COCc1cc(-c2ccc3[nH]c([C@@H]4CCCN4C(=O)[C@@H](NC(=O)OC)C(C)C)nc3c2)c(COC)cc1-c1ccc2[nH]c([C@@H]3CCCN3C(=O)[C@@H](NC(=O)OC)C(C)C)nc2c1 [Compound 218] | ≤ 5 nM
6 | COC(=O)N[C@H](C(=O)N1CCC[C@H]1c1nc2cc(-c3ccc(-c4ccc5nc([C@@H]6CCCN6C(=O)[C@@H](NC(=O)OC)C(C)(C)O)[nH]c5c4)c4c3OCO4)ccc2[nH]1)C(C)(C)O [Compound 219] | ≤ 5 nM
7 | COC(=O)N[C@H](C(=O)N1CCC[C@H]1c1nc2cc(-c3ccc(-c4ccc5nc([C@@H]6CCCN6C(=O)[C@@H](NC(=O)OC)C(C)C)[nH]c5c4)cc3CF)ccc2[nH]1)C(C)C [Compound 220] | ≤ 5 nM
8 | COC(=O)N[C@H](C(=O)N1CCC[C@H]1c1nc2cc(-c3ccc(-c4ccc5[nH]c([C@@H]6CCCN6C(=O)[C@@H](NC(=O)OC)C(C)C)nc5c4)c4c3OC(F)(F)O4)ccc2[nH]1)C(C)C [Compound 221] | ≤ 5 nM
9 | COC(=O)N[C@H](C(=O)N1C[C@@H](OC)C[C@H]1c1nc2cc(-c3ccc(-c4ccc5[nH]c([C@@H]6C[C@H](OC)CN6C(=O)[C@@H](NC(=O)OC)C(C)C)nc5c4)cc3)ccc2[nH]1)C(C)C [Compound 222] | ≤ 5 nM
10 | Cn1c([C@@H]2CCCN2C(=O)OC(C)(C)C)nc2cc(-c3ccc(-c4ccc5c(c4)nc([C@@H]4CCCN4C(=O)OC(C)(C)C)n5C)cc3)ccc21 [Compound 225] | > 5000 nM
11 | Cn1c([C@@H]2CCCN2C(=O)OC(C)(C)C)nc2cc(-c3ccc(-c4ccc5[nH]c([C@@H]6CCCN6C(=O)OC(C)(C)C)nc5c4)cc3)ccc21 [Compound 226] | 5 to 5000 nM
12 | Cn1c([C@@H]2CCCN2)nc2cc(-c3ccc(-c4ccc5c(c4)nc([C@@H]4CCCN4)n5C)cc3)ccc21 [Compound 227] | > 5000 nM
13 | Cn1c([C@@H]2CCCN2)nc2cc(-c3ccc(-c4ccc5[nH]c([C@@H]6CCCN6)nc5c4)cc3)ccc21 [Compound 228] | > 5000 nM
14 | COC(=O)N[C@H](C(=O)N1CCC[C@H]1c1nc2ccc(N3CCN(c4ccc5nc([C@@H]6CCCN6C(=O)[C@@H](NC(=O)OC)C(C)C)[nH]c5c4)CC3)cc2[nH]1)C(C)C [Compound 229] | ≤ 5 nM
15 | O=C1O[C@@H]2C[C@@H]3C[C@@H]2[C@@H]1[C@H]3C(=O)N1CCC[C@H]1c1nc2cc(-c3ccc(-c4ccc5[nH]c([C@@H]6CCCN6C(=O)[C@H]6[C@H]7C[C@@H]8[C@H]6C(=O)O[C@@H]8C7)nc5c4)cc3)ccc2[nH]1 [Compound 230] | 5 to 5000 nM
16 | COC(=O)N[C@H](C(=O)N1CCC[C@H]1c1nc2cc(-c3ccc(-c4ccc5c(c4)nc([C@@H]4CCCN4C(=O)[C@@H](NC(=O)OC)C(C)C)n5C)cc3)ccc2n1C)C(C)C [Compound 231] | > 5000 nM
17 | COC(=O)N[C@H](C(=O)N1CCC[C@H]1c1nc2cc(-c3ccc(-c4ccc5c(c4)nc([C@@H]4CCCN4C(=O)[C@@H](NC(=O)OC)C(C)C)n5C)cc3)ccc2[nH]1)C(C)C [Compound 232] | ≤ 5 nM
18 | COC(=O)N[C@H](C(=O)N1C[C@@H](C)C[C@H]1c1nc2cc(-c3cc4sc(-c5ccc6[nH]c([C@@H]7C[C@H](C)CN7C(=O)[C@@H](NC(=O)OC)C(C)C)nc6c5)cc4s3)ccc2[nH]1)C(C)C [Compound 233] | ≤ 5 nM
19 | COC(=O)N[C@H](C(=O)N1[C@H](c2nc3cc(-c4ccc(-c5ccc6[nH]c([C@@H]7C[C@@H]8C[C@@H]8N7C(=O)[C@@H](NC(=O)OC)C(C)C)nc6c5)cc4)ccc3[nH]2)C[C@@H]2C[C@@H]21)C(C)C [Compound 234] | ≤ 5 nM
20 | COC(=O)N[C@H](C(=O)N1CC[C@@H](O)[C@H]1c1nc2ccc(-c3ccc(-c4ccc5nc([C@@H]6[C@H](O)CCN6C(=O)[C@@H](NC(=O)OC)C(C)C)[nH]c5c4)cc3)cc2[nH]1)C(C)C [Compound 235] | ≤ 5 nM
21 | COC(=O)N[C@H](C(=O)N1CCC[C@H]1c1nc2ccc(-c3coc(-c4ccc5nc([C@@H]6CCCN6C(=O)[C@@H](NC(=O)OC)C(C)C)[nH]c5c4)n3)cc2[nH]1)C(C)C [Compound 236] | ≤ 5 nM
22 | COC(=O)N[C@H](C(=O)N1C[C@@H](C)C[C@H]1c1nc2cc(-c3ccc(-c4ccc5[nH]c([C@@H]6C[C@H](C)CN6C(=O)[C@@H](NC(=O)OC)C(C)C)nc5c4)c(C)c3)ccc2[nH]1)C(C)C [Compound 237] | ≤ 5 nM

Row | SMILES | EC50
23 | COC(=O)N[C@H](C(=O)N1CCC[C@H]1c1nc2ccc(-c3cn(C)c(-c4ccc5nc([C@@H]6CCCN6C(=O)[C@@H](NC(=O)OC)C(C)C)[nH]c5c4)n3)cc2[nH]1)C(C)C [Compound 238] | 5 to 5000 nM
24 | COC(=O)N[C@H](C(=O)N1[C@@H]2C[C@@H]2C[C@H]1c1nc2cc(-c3ccc(-c4ccc5[nH]c([C@@H]6C[C@H]7C[C@H]7N6C(=O)[C@@H](NC(=O)OC)C(C)C)nc5c4)cc3)ccc2[nH]1)C(C)C [Compound 240] | ≤ 5 nM
25 | COC(=O)N[C@H](C(=O)N1CCC[C@H]1c1nc2cc(-c3ccc(-c4ccc5[nH]c([C@@H]6CCCN6C(=O)[C@@H](Nc6ncccn6)C(C)C)nc5c4)cc3)ccc2[nH]1)C(C)C [Compound 241] | ≤ 5 nM
26 | COC(=O)N[C@H](C(=O)N1C[C@@H](C)C[C@H]1c1nc2cc(-c3ccc(-c4ccc5[nH]c([C@@H]6C[C@H](C)CN6C(=O)[C@@H](NC(=O)OC)C(C)C)nc5c4)c(F)c3)ccc2[nH]1)C(C)C [Compound 242] | ≤ 5 nM
27 | COC(=O)N[C@H](C(=O)N1CC2CC2C1c1nc2cc(-c3ccc(-c4ccc5[nH]c(C6C7CC7CN6C(=O)[C@@H](NC(=O)OC)C(C)C)nc5c4)cc3)ccc2[nH]1)C(C)C (stereo partly drawn) [Compound 243] | ≤ 5 nM
28 | COC(=O)N[C@H](C(=O)N1CC2(CC2)C[C@H]1c1nc2cc(-c3ccc(-c4ccc5[nH]c([C@@H]6CC7(CC7)CN6C(=O)[C@@H](NC(=O)OC)C(C)C)nc5c4)cc3)ccc2[nH]1)C(C)C [Compound 245] | ≤ 5 nM
29 | COC(=O)N[C@H](C(=O)N1C[C@@H](C)C[C@H]1c1nc2cc(-c3ccc(-c4ccc5nc([C@@H]6C[C@@H](O)CN6C(=O)[C@H](NC(=O)OC)C(C)C)[nH]c5c4)cc3)ccc2[nH]1)C(C)C [Compound 246] | ≤ 5 nM
30 | COC(=O)N(C)[C@H](C(=O)N1C[C@@H](C)C[C@H]1c1nc2cc(-c3ccc(-c4ccc5[nH]c([C@@H]6C[C@H](C)CN6C(=O)[C@H](C(C)C)N(C)C(=O)OC)nc5c4)cc3)ccc2[nH]1)C(C)C [Compound 247] | ≤ 5 nM
31 | COC(=O)N[C@H](C(=O)N1C[C@H](C)C[C@H]1c1nc2cc(-c3ccc(-c4ccc5[nH]c([C@@H]6C[C@@H](C)CN6C(=O)[C@@H](NC(=O)OC)C(C)C)nc5c4)cc3)ccc2[nH]1)C(C)C [Compound 248] | ≤ 5 nM
32 | COC(=O)N[C@H](C(=O)N1CCC[C@@]1(C)c1nc2cc(-c3ccc(-c4ccc5[nH]c([C@]6(C)CCCN6C(=O)[C@@H](NC(=O)OC)C(C)C)nc5c4)cc3)ccc2[nH]1)C(C)C [Compound 249] | ≤ 5 nM
33 | COC(=O)N[C@H](C(=O)N1CCC[C@H]1c1nc2c(F)cc(-c3ccc(-c4cc(F)c5nc([C@@H]6CCCN6C(=O)[C@@H](NC(=O)OC)C(C)C)[nH]c5c4)cc3)cc2[nH]1)C(C)C [Compound 250] | ≤ 5 nM
34 | COC(=O)N[C@H](C(=O)N1C[C@@H](C)C[C@H]1c1nc2cc(C#CC#Cc3ccc4[nH]c([C@@H]5C[C@H](C)CN5C(=O)[C@@H](NC(=O)OC)C(C)C)nc4c3)ccc2[nH]1)C(C)C [Compound 251] | ≤ 5 nM
35 | COC(=O)N[C@H](C(=O)N1C[C@@H](C)C[C@H]1c1nc2cc(-c3cc(C)c(-c4ccc5[nH]c([C@@H]6C[C@H](C)CN6C(=O)[C@@H](NC(=O)OC)C(C)C)nc5c4)cc3C)ccc2[nH]1)C(C)C [Compound 252] | ≤ 5 nM
36 | COC(=O)N[C@H](C(=O)N1C[C@@H](C)C[C@H]1c1nc2cc(-c3ccc(-c4ccc5[nH]c([C@@H]6C[C@H](C)CN6C(=O)[C@H](C(C)C)N(C)C(=O)OC)nc5c4)cc3)ccc2[nH]1)C(C)C [Compound 253] | ≤ 5 nM
37 | COC(=O)N[C@H](C(=O)N1CCC[C@H]1c1nc2c(F)cc(-c3ccc(-c4cc(F)c5nc([C@@H]6CCCN6C(=O)[C@@H](NC(=O)OC)C(C)C)[nH]c5c4)c(C)c3)cc2[nH]1)C(C)C [Compound 254] | ≤ 5 nM
38 | COC(=O)N[C@H](C(=O)N1CCC[C@H]1c1nc2cc(-c3ccc(-c4ccc5nc([C@@H]6CCCN6C(=O)[C@@H](NC(=O)OC)C(C)C)n(C)c5c4)cc3)ccc2[nH]1)C(C)C [Compound 255] | ≤ 5 nM
39 | Cn1c(C2CCCN2C(=O)OC(C)(C)C)nc2ccc(-c3ccc(-c4ccc5[nH]c(C6CCCN6C(=O)OC(C)(C)C)nc5c4)cc3)cc21 (stereo not drawn) [Compound 256] | 5 to 5000 nM
40 | Cn1c([C@@H]2CCCN2C(=O)OC(C)(C)C)nc2ccc(-c3ccc(-c4ccc5nc([C@@H]6CCCN6C(=O)OC(C)(C)C)n(C)c5c4)cc3)cc21 [Compound 257] | 5 to 5000 nM
41 | COC(=O)N[C@H](C(=O)N1CCC[C@H]1c1nc2ccc(N3C[C@H](C)N(c4ccc5nc([C@@H]6CCCN6C(=O)[C@@H](NC(=O)OC)C(C)C)[nH]c5c4)C[C@H]3C)cc2[nH]1)C(C)C [Compound 258] | ≤ 5 nM
42 | COC(=O)N[C@H](C(=O)N1CCC[C@H]1c1nc2ccc(-c3ccc(-c4ccc5nc([C@@H]6CCCN6C(=O)[C@@H](NC(=O)OC)C(C)C)n(C)c5c4)cc3)cc2n1C)C(C)C [Compound 259] | ≤ 5 nM
